Converted amounts (≈) assume the structure as drawn.
Columns and labels:
adult stable fly = experiment: in vitro activity against adult stable fly; assay type: in vivo; settings: Stomoxys calcitrans, 48 hours
Protocol: (§1) The Formula 2 compounds are also active against members of the insect order Diptera. Tables XI and XII summarize the in vitro studies of the Formula 2 compounds against blowfly larvae and adult stable fly at 48 hours.

German Cockroach = experiment: Mite/Insect Screen, German cockroach (GECR); assay type: in vivo; settings: Blattella germanica
Protocol: (§2) The Formula 2 compounds were tested for miticidal and insecticidal activity in the following mite/insect screen. Each test compound was formulated by dissolving the compound in an acetone-alcohol (1:1) mixture containing 23 g of TOXIMUL R (sulfonate/nonionic emulsifier blend) and 13 g of TOXIMUL S (sulfonate/nonionic emulsifier blend) per liter. These mixtures were then diluted with water to give the indicated concentrations.
(§3) Two-spotted spider mites and cotton aphids were introduced on squash cotyledons and allowed to establish on both leaf surfaces. The leaves were then sprayed with 5 ml of test solutions using a DeVilbiss atomizing sprayer at 10 psi. Both surfaces of the leaves were covered until run off and then allowed to dry for one hour. After standard exposure periods percent mortality was evaluated. Additional insects were evaluated using similar formulations and evaluation procedures.

Two-spotted Spider Mite = experiment: Mite/Insect Screen, two-spotted spider mite (TSSM); assay type: in vivo; settings: Tetranychus urticae, 4-5 day; for inhibition at 50 ppm: 50 ppm (rate in parenthesis)
Protocol: as §2, §3

Tobacco Budworm = experiment: Mite/Insect Screen, tobacco budworm (TBW); assay type: in vivo; settings: Heliothis virescens, 144 h, 6 day; for inhibition at 50 ppm: 50 ppm (rate in parenthesis)
Protocol: as §2, §3

Aster Leafhopper = experiment: Mite/Insect Screen, aster leafhopper (ALH); assay type: in vivo; settings: Macrosteles fascifrons, 24 hr
Protocol: as §2, §3

Cotton Aphid = experiment: Mite/Insect Screen, cotton aphid (CA); assay type: in vivo, Aphis gossypii Glover; settings: Aphis gossypii, 4-5 day
Protocol: as §2, §3

blowfly larvae = experiment: in vitro activity against blowfly larvae; assay type: in vivo; settings: 48 hours
Protocol: as §1

Southern Corn Rootworm = experiment: Mite/Insect Screen, southern corn rootworm (SCRW); assay type: in vivo, Diabrotica undecimpunctata howardi; settings: 264 h, 11 day
Protocol: as §2, §3

Beet Armyworm = experiment: Mite/Insect Screen, beet armyworm (BAW); assay type: in vivo, Spodoptera exiqua; settings: Spodoptera exigua, 144 h, 6 day
Protocol: as §2, §3

neonate tobacco budworm = experiment: LD50 against neonate tobacco budworm, petri dish assay; assay type: in vivo; settings: Heliothis virescens; mean of two tests; mortality evaluated at 24 and 48 hours
Protocol: Formula 2 compounds were evaluated in the following assay to determine the LD50 against neonate tobacco budworm (Heliothis virescens). A petri dish (100 mm×20 mm) is inverted and the lid lined with a #1 qualitative filter paper. Ten neonate larvae are placed in each dish and a 1 ml test solution is pipetted onto the insects. The petri dish bottom is then placed on the lid to contain the larvae. At 1 hour after treatment, a small piece of Heliothis diet (modified slurry, Southland Products, Lake Village, AR) is added to each dish. The mortality is evaluated at 24 and 48 hours. The tests were run in triplicate.

Rootknot Nematode = experiment: Mite/Insect Screen, rootknot nematode (NEM); assay type: in vivo, Meiiiodyne spp.; settings: 264 h, 11 day
Protocol: as §2, §3

[1] = system: histamine N-methyltransferase; settings: cited from earlier work
[2] = system: catechol O-methyltransferase; settings: cited from earlier work
[3] = system: S-adenosyl-methionine-dependent O-methyltransferase; settings: avermectin-producing strains; cited from earlier work
[4] = system: macrocin O-methyltransferase; settings: cited from earlier work
[5] = system: norepinephrine N-methyltransferase; settings: cited from earlier work

SMILES | inhibition at 200 ppm (German Cockroach; 168 h, 7 day) [%] | inhibition at 400 ppm (German Cockroach; 168 h, 7 day) [%] | inhibition at 200 ppm (German Cockroach; 504 h, 21 day) [%] | inhibition at 400 ppm (German Cockroach; 504 h, 21 day) [%] | inhibition at 200 ppm (Two-spotted Spider Mite) [%] | inhibition at 400 ppm (Two-spotted Spider Mite) [%] | inhibition at 400 ppm (Tobacco Budworm) [%] | inhibition at 200 ppm (Aster Leafhopper) [%] | inhibition at 400 ppm (Aster Leafhopper) [%] | inhibition at 200 ppm (Cotton Aphid) [%] | inhibition at 400 ppm (Cotton Aphid) [%] | inhibition at 200 ppm (Southern Corn Rootworm) [%] | inhibition at 400 ppm (Southern Corn Rootworm) [%] | inhibition at 200 ppm (Beet Armyworm) [%] | inhibition at 400 ppm (Beet Armyworm) [%] | LC50 (neonate tobacco budworm) [µg/mL] | inhibition at 200 ppm (Rootknot Nematode) [%] | inhibition at 400 ppm (Rootknot Nematode) [%] | inhibition at 50 ppm (Two-spotted Spider Mite) [%] | inhibition at 50 ppm (Tobacco Budworm) [%] | also measured
CCC1CCCC(OC2CCC(N(C)C)C(C)O2)C(C)C(=O)C2=CC3C(C=CC4CC(OC5OC(C)C(O)C(OC)C5OC)CC43)C2CC(=O)O1 (stereo not drawn) [A83543K] | 0 | 0 | 0 | 80 | 90 | 100 | 100 | 100 | 100 | 0 | 0 | 0 | 100 | 100 | 100 | 3.5 (≈ 4.88 µM) | 0 | 0 |  |  | mortality at 2.5 ppm (adult stable fly; 2.5 ppm): 90%; inhibition at 200 ppm (Tobacco Budworm): 100%; % mortality (blowfly larvae; 2.5 ppm): 40%
CCC1CCCC(OC2CCC(N(C)C)C(C)O2)C(C)C(=O)C2=CC3C(C=C(C)C4CC(OC5OC(C)C(O)C(OC)C5OC)CC43)C2CC(=O)O1 (stereo not drawn) [A83543O] | 0 | 0 | 20 | 100 | 100 | 100 | 100 | 100 | 100 | 0 | 100 | 0 | 0 | 100 | 100 | 1.4 (≈ 1.91 µM) | 0 | 0 |  |  | mortality at 5 ppm (adult stable fly; 5 ppm): 100%; inhibition at 200 ppm (Tobacco Budworm): 100%
CCC1CCCC(OC2CCC(N(C)C)C(C)O2)C(C)C(=O)C2=CC3C(C=CC4CC(OC5OC(C)C(O)C(O)C5OC)CC43)C2CC(=O)O1 (stereo not drawn) [A83543P] | 0 | 0 | 20 | 0 |  | 100 | 100 | 0 | 0 | 0 | 0 | 0 | 0 | 100 | 100 | > 64 | 0 | 0 | 100 | 0 | mortality at 10 ppm (adult stable fly): 90%; % mortality (blowfly larvae; 10.0 ppm): 10%
CCC1CCCC(OC2CCC(N(C)C)C(C)O2)C(C)C(=O)C2=CC3C(C=CC4CC(OC5OC(C)C(O)C(OC)C5O)CC43)C2CC(=O)O1 (stereo not drawn) [A83543U] | 0 | 0 | 0 | 0 | 0 | 0 | 100 | 100 | 100 | 0 | 0 | 0 | 0 | 100 | 100 | 22 (≈ 31.3 µM) | 0 | 0 |  | 100 | 
CCC1CCCC(OC2CCC(N(C)C)C(C)O2)C(C)C(=O)C2=CC3C(C=C(C)C4CC(OC5OC(C)C(O)C(O)C5OC)CC43)C2CC(=O)O1 (stereo not drawn) [A83543W] | 0 | 0 | 20 | 0 |  | 80 | 100 | 0 | 0 | 0 | 0 | 0 | 0 | 0 | 60 | > 64 | 0 | 0 | 0 | 0 | mortality at 10 ppm (adult stable fly): 40%; % mortality (blowfly larvae; 10.0 ppm): 0%
COC1C(OC2CC3C=CC4C5CC(=O)OC(C)CCCC(OC6CCC(N(C)C)C(C)O6)C(C)C(=O)C5=CC4C3C2)OC(C)C(O)C1OC (stereo not drawn) [A83543Y] | 0 | 0 |  |  |  | 100 | 100 | 60 | 80 | 0 | 0 | 0 | 0 | 80 | 100 | 20 (≈ 28.4 µM) |  |  | 0 | 0 | mortality at 10 ppm (adult stable fly): 90%; % mortality (blowfly larvae; 10.0 ppm): 100%
CCC1CCCC(OC2CCC(NC)C(C)O2)C(C)C(=O)C2=CC3C(C=CC4CC(OC5OC(C)C(O)C(OC)C5OC)CC43)C2CC(=O)O1 (stereo not drawn) [N-demethyl-K, N-demethyl-A83543K] | 0 | 0 | 20 | 60 |  | 100 | 100 | 100 | 100 | 0 | 0 |  | 60 | 100 | 100 | 9.8 (≈ 13.9 µM) |  | 100 | 0 | 100 | 
Nc1ncnc2c1ncn2[C@@H]1O[C@H](C[C@@H](N)CC[C@H](N)C(=O)O)[C@@H](O)[C@H]1O [Sinefungin] |  |  |  |  |  |  |  |  |  |  |  |  |  |  |  |  |  |  |  |  | inhibition of histamine N-methyltransferase [1]: effective in inhibiting; inhibition of catechol O-methyltransferase [2]: effective in inhibiting; inhibition of O-methyltransferase in S. avermitilis [3]: effective in inhibiting; inhibition of macrocin O-methyltransferase [4]: effective in inhibiting; inhibition of norepinephrine N-methyltransferase [5]: effective in inhibiting

From patent US5670364A, “A83543 compounds and process for production thereof” (priority 1995, dated 1997)
